# In EP0802730B1, “PESTICIDAL COMPOUNDS” (BTG INTERNATIONAL LIMITED, priority 1995, dated 1996):
# Where two headings read alike, the source gives them in different places.
# Tests used:
# Type in all cases: in vivo
# [1] = tested on: Mustard beetles (PC) (Phaedon cochleariae Fab); details: for PC LD50 (µg/insect): Tables 10, 13, 14
# Description: A one microlitre drop of an acetone solution of the test compound was applied ventrally to adult mustard beetles using a micro drop applicator. The treated insects were maintained for 48 hours after which time kill was assessed. Two replicates each of 20 to 25 mustard beetles were used at each dose level and 5 dose levels were treated comparably. LD50 values were calculated as for houseflies.
# [2] = tested on: Mites (TU) (Tetranychus urticae), susceptible strain (GSS); assay: Mite immersion test, susceptible strain GSS
# Description: 25 adult female mites were immersed in 35 µl of a solution of the test compound in a 1:4 acetone-water mixture for 30 seconds. The treated insects were maintained at 21° ± 2°C and kill was assessed 72 hours after treatment. […] Three replicates of 25 mites each were used at each dose rate and 5 or 6 dose rates were used per compound under test. LC50 values were calculated in ppm of the solution of the test compound per insect. The test was carried out using a susceptible strain of mites (GSS) supplied by Schering, AG, Berlin.
# [3] = tested on: Whitefly (BT) (Bemisia tabaci), susceptible strain (SUD-S); assay: Whitefly residual film vial test, susceptible strain SUD-S
# Description: Acetone solutions (0.100 ml) of the test compounds were placed in 10 ml glass vials and evaporated with rotation to deposit a film of the compound. Thirty adult whiteflies were placed inside the vial, then after 60 minutes, the treated insects were transferred onto untreated cotton leaf discs which were kept moist on a bed of agar gel. The temperature was maintained at 25°C and mortality assessed after 48 hours. Three replicates were used at each of 5 to 7 dose levels per compound.
# [4] = tested on: Houseflies (MD) (Musca domestica); details: for MD LD50 (µg/insect): Tables 10, 13, 14, NA = lack of detectable activity
# Description: Female flies were treated on the thorax with a one microlitre drop of test compound dissolved in acetone. Two replicates of 15 flies were used at each dose rate and 6 dose rates were used per compound under test. After treatment, the flies were maintained at a temperature of 20° ± 1°C and kill was assessed 24 and 48 hours after treatment. LD50 values were calculated in micrograms of test compound per fly (see Sawicki et al., Bulletin of the World Health Organisation, 35, 893 (1966) and Sawicki et al., Entomologia and Exp. Appli 10, 253, (1967).
# [5] = tested on: Myzus persicae, susceptible strain (US1L); assay: Aphid dip test, susceptible strain; details: read-out: MP % kill 100 ppm
# Description: Activity against resistant (R) and susceptible (S) strains of aphid (Myzus persicae) was assessed using the following method.
# Entrapment rings of fluon were painted halfway up the inside of 4 cm lengths of glass tubing (1.5 cm diameter), and squares of insect-proof gauze were attached to one end of each tube by elastic bands. Fifteen apterous adults were then gently transferred into the tubes using a sable-hair brush, and the tube sealed with a second gauze square.
# Tubes containing aphids were dipped into insecticide solutions for 10 seconds, dried on blotting paper, and then inverted and tapped to cause treated aphids to fall to the unimmersed end of each tube. Handling mortality (usually zero or very slight) was scored after 1 hour, when aphids were transferred onto chinese cabbage leaf-discs (35 mm diameter) on an agar bed (25 mm in depth) in disposible plastic containers (30 mm high) and confined by applying a ring of fluon to the exposed lip of the container. Containers were store upright, without lids, in a constant environment facility maintained at 25°C under continuous room lighting. Mortality was assessed at 24, 48 and 72 hours. Two replicates of 15 aphids each were used at each dose rate and 5 or 6 dose rates were used per compound under test.
# The test was carried out using a susceptible strain of aphids (US1L) collected in the field in East Anglia, UK and an extremely resistant strain of aphids (794Jz) (R3 esterase, sensitive AChE) collected from glasshouses in the UK.
# The values given are % mortality corrected for control data. The control comprised the test solution without active ingredient.
# [6] = NA = lack of detectable activity
# [7] = 72 h, Tables 10, 13, 14, susceptible strain, NA = lack of detectable activity, read-out: TU LC50 (ppm/insect)
# [8] = 48 h, Tables 10, 13, 14, susceptible strain, NA = lack of detectable activity, read-out: BT LC50 (ppm/insect)
# [9] = topical 1 µl drop in acetone on female flies, kill assessed 24 and 48 hours
# [10] = 1 µl acetone drop applied ventrally to adults, kill at 48 hours, NA = lack of detectable activity
# [11] = ppm solution of test compound, 30 seconds immersion, kill at 72 hours, read-out: TU(GSS) (LC50)
# [12] = ppm solution of test compound, 60 minutes film exposure, mortality after 48 hours, read-out: BT(SUD-S) (LC50)
Compound,"PC LD50 (µg/insect) [1, 6]","LC50 [2, 7] [µg/mL]","LC50 [3, 8] [µg/mL]","MD (LD50) [4, 9]","PC (LD50) [1, 10]","LC50 [2, 11] [µg/mL]",also measured
"CCCC1=C(O)C(=O)c2ccccc2C1=O [-(CH2)2CH3, reference compound]",c10 µg/insect,~1000,80,,,,
"CCCCC1=C(O)C(=O)c2ccccc2C1=O [-(CH2)3CH3, reference compound]",c5 µg/insect,65,13,,,,MD LD50 (µg/insect) [4]: c10 µg/insect
"CCCCCC1=C(O)C(=O)c2ccccc2C1=O [-(CH2)4CH3, reference compound]",c7 µg/insect,16,17,,,,
"CCCCCCCCC1=C(O)C(=O)c2ccccc2C1=O [-(CH2)7CH3, reference compound]",0.78 µg/insect,~1000,19,,,,MD LD50 (µg/insect) [4]: 1.9 µg/insect
"CCCCCCCCCCC1=C(O)C(=O)c2ccccc2C1=O [-(CH2)9CH3, reference compound]",1.9 µg/insect,5.5,> 100,,,,
"CCCCCCCCCCCC1=C(O)C(=O)c2ccccc2C1=O [-(CH2)10CH3, reference compound]",c0.4 µg/insect,1.4,> 100,,,,
"CCCCCCCCCCCCC1=C(O)C(=O)c2ccccc2C1=O [-(CH2)11CH3, reference compound]",,< 60,> 100,,,,mortality at 100 ppm [5]: 0%
"CCCCCCCCCCCCCCC1=C(O)C(=O)c2ccccc2C1=O [-(CH2)13CH3, reference compound]",,1.3,,,,,
"CC(C)(C)C1CCC(C2=C(O)C(=O)c3ccccc3C2=O)CC1 (centres unmarked) [Compound B, 2-hydroxy-3-(4-t-butylcyclohexyl)-naphthalene-1,4-dione, reference compound]",,,,,,,"MD (LD50) ([4]; house fly, in vivo): 15.5; PC (LD50) ([1]; mustard beetle, in vivo, 2880 min): 0.53; LC50 ([2]; 72 h, text b201, no unit printed there, read-out: TU (GSS) LC50): 44 µg/mL; LC50 ([3]; 48 h, text b201, no unit printed there, read-out: BT(SUD-S) LC50): 18 µg/mL"
C=CC(C)(C)C1=C(OC(=O)CC)C(=O)c2ccccc2C1=O [Example 4],,,,8.2 µg/insect,3.9 µg/insect,18,"LC50 [3, 12]: 5.3 µg/mL"
C=CC(C)(C)C1=C(OC(=O)CCCC)C(=O)c2ccccc2C1=O [Example 6],,,,c. 2.0 µg/insect,2.1 µg/insect,27,"LC50 [3, 12]: 16 µg/mL"
C=CC(C)(C)C1=C(OC(=O)CCCCC)C(=O)c2ccccc2C1=O [Example 7],,,,> 20 µg/insect,c. 6.0 µg/insect,53,"LC50 [3, 12]: < 100 µg/mL"
C=CC(C)(C)C1=C(OC(=O)CF)C(=O)c2ccccc2C1=O [Example 9],,,,,0.41 µg/insect,,"LC50 ([2]; 72 h, read-out: TU(GSS) (LC50)): 140 µg/mL; LC50 ([3]; 48 h, read-out: BT(SUD-S) (LC50)): 13.4 µg/mL"
C=CC(C)(C)C1=C(OC(=O)C(C)C)C(=O)c2ccccc2C1=O [Example 10],,,,> 20 µg/insect,c. 6.0 µg/insect,15,"LC50 [3, 12]: 35 µg/mL"
C=CC(C)(C)C1=C(OC(=O)c2ccccc2)C(=O)c2ccccc2C1=O [Example 11],,,,,,~50,
"C=CC(C)(C)C1=C(OC)C(=O)c2ccccc2C1=O [Example 12, 2-(1,1-dimethylprop-2-enyl)-3-methoxy-naphthalene-1,4-dione]",,,,> 20 µg/insect,c. 12.0 µg/insect,,
